According to patent US20140357713A1, “ANTIMICROBIAL COMPOUNDS AND METHODS OF USE” (NexMed Holdings, Inc., priority 2012, published 2014):
In brackets after ≈: the same amount, converted by molar mass. Where two headings read alike, the source gives them in different places.

Assays:
[1] = tested on: Staphylococcus aureus (ATCC 29213); assay: Time kill study, Example 33 (0 to 5 min); format: cell-based; conditions: 1×MIC
Procedure: (§1) Thirty compounds were tested for antimicrobial activity using standard procedures and standard strains for both the minimum inhibitory concentration (MIC) assay and a time kill study. Both the MIC assay and the time kill study were performed according to Clinical and Laboratory Standards Institute (CLSI) guidelines. Three bacteria strains, Escherichia coli (ATCC 25922), Pseudomonas aeruginosa (ATCC 27853), Staphulococcus aureus (ATCC 29213), and two fungus strains, Candida albicans (ATCC 90029) and Aspergillus niger (CMCC 98003), were used in the experiments.
(§2) The viable counts in Log10 CFU/mL at each time point were recorded.
(§3) Time kill studies. Strain suspensions were prepared as described above for the MIC test, and strain suspensions and compound solutions were mixed in the same volume. Samples were removed at specified times including 0 min, 30 sec, 1 min and 5 mins, were diluted in the test medium and streaked on agar. Colonies were counted after 24 to 48 hrs of incubation. […]

[2] = tested on: Escherichia coli (ATCC 25922); assay: Time kill study, Example 33 (0 to 5 min); format: cell-based; conditions: 1×MIC
Procedure: as §1, §2, §3

[3] = tested on: Pseudomonas aeruginosa (ATCC 27853); assay: Time kill study, Example 33 (0 to 5 min); format: cell-based; conditions: 1×MIC
Procedure: as §1, §2, §3

[4] = tested on: Candida albicans (ATCC 90029); assay: Minimum inhibitory concentration (MIC) assay, Example 33; format: cell-based
Procedure: as §1
(§4) Preparation of cultures. Before the experiment, two days for the bacteria strains and five days for fungus strains, an aliquot was removed from the cultures frozen at −80° C. Medium was added to the surface of an appropriate agar plate and streaked with the aliquot. The plate was incubated for 20 to 24 hrs at 35±2° C. for bacteria or for 5 days at 26-30° C. in incubator for fungus. From the resulting growth on each plate, one isolated colony of similar morphology was selected and re-streaked onto a fresh agar plate using a sterile disposable loop. The plate was incubated 20 to 24 hrs at 35±2° C. or for 5 days at 26-30° C. in an incubator.
(§5) Preparation of Assay Plates with Medium and Drugs. On the day of the assay, CAMHB medium or RPMI 1640 medium was removed from 4′C storage and allowed to reach room temperature. Ninety microliters (μL) of room temperature CAMHB or RPMI 1640 (supplemented with the appropriate concentration of DMSO, if required) were added to rows B-G of each 96-well microtiter plate. Using a pipette, duplicate 180 μL aliquots of each drug stock solution were added to column 1 (e.g. A1 and B1 or C1 and D1 or E1 and F1 or G1 and H1). Using a multichannel pipette or the Provision 2000 liquid handler, serial 2-fold dilutions (90 μL) were performed in each row across the plate to row G. Eighty μL of compounds dilutions were transferred to a 96-deep well plate. Medium, 1,520 μL of CAMHB or RPMI 1640, was added to each well. The contents of the wells were mixed thoroughly. A 50 μL aliquot of each of the resulting mixtures was transferred to a 96-well assay plate.
For Candida albicans, a sterile inoculating loop was used to transfer growth from an agar plate culture into a tube with RPMI1640 medium. This inoculum was adjusted so that its density at 530 nm was in the ranges from 0.08 to 0.13. The resulting suspension was diluted 1:50 and further diluted 1:20 with the medium to obtain two times test inoculums.
(§6) For Aspergillus niger, sporulating colonies were covered with RPMI 1640, and a suspension was prepared by gently probing the colonies with the tip of a transfer pipette. The suspension was transferred to a sterile tube and mixed with a vortex mixer for 15 seconds. The densities at 530 nm were adjusted to 0.09-0.13 for each sample. The resulting suspension was diluted 1:50 with the medium to obtain two times test inoculums. Fifty μL/well of this inoculum suspension was added to wells of drug-containing plates (1:2 dilution). Plates were incubated at 35° C. for the appropriate times. The MIC was read and recorded according to CLSI guidelines.
(§7) The MIC values for thirty compounds against Escherichia coli, Pseudomonas aeruginosa, Staphulococcus aureus, Candida albicans, and Aspergillus niger were recorded and are presented in Table 3 and Table 4.

[5] = tested on: Staphulococcus aureus (ATCC 29213); assay: as above; format: cell-based, Staphylococcus aureus
Procedure: as §1, §4, §5
(§8) For bacteria, a sterile inoculating loop was used to transfer growth from an agar plate culture into about 5 mL of test medium. Using a turbidity meter, this inoculum was adjusted so that its density (600 nm) was equivalent to a 0.5 McFarland barium sulfate standard (0.08-0.13). The resulting suspension was diluted 1:100 into medium to obtain two times test inoculums.
as §6, §7

[6] = tested on: Aspergillus niger (CMCC 98003); assay: as above; format: cell-based
Procedure: as §1, §4, §5, §6, §7

[7] = tested on: Escherichia coli (ATCC 25922); assay: as above; format: cell-based
Procedure: as §1, §4, §5, §8, §6, §7

[8] = tested on: Pseudomonas aeruginosa (ATCC 27853); assay: as above; format: cell-based
Procedure: as §1, §4, §5, §8, §6, §7

pH (Table 1) = format: physicochemical
[9] = Table 19 summary of Example 33 and Example 35
[10] = Staphylococcus aureus, ATCC29213, n = 1, read-out: MIC S. aureus
[11] = Staphylococcus aureus, ATCC29213, n = 2, read-out: MIC S. aureus
[12] = Escherichia coli, ATCC25922, n = 1, read-out: MIC E. coli
[13] = Escherichia coli, ATCC25922, n = 2, read-out: MIC E. coli
[14] = Pseudomonas aeruginosa, ATCC27853, n = 1, read-out: MIC P. aeruginosa
[15] = Pseudomonas aeruginosa, ATCC27853, n = 2, read-out: MIC P. aeruginosa

Row | SMILES | Viable counts, Staphylococcus aureus time kill study ([1]; 0.5 min) [Log10 CFU/mL] | Viable counts, Staphylococcus aureus time kill study ([1]; 1 min) [Log10 CFU/mL] | Viable counts, Staphylococcus aureus time kill study ([1]; 5 min) [Log10 CFU/mL] | Viable counts, Staphylococcus aureus time kill study ([1]; time 0) [Log10 CFU/mL] | Viable counts, Escherichia coli time kill study ([2]; 0.5 min) [Log10 CFU/mL] | Viable counts, Escherichia coli time kill study ([2]; 1 min) [Log10 CFU/mL] | Viable counts, Escherichia coli time kill study ([2]; 5 min) [Log10 CFU/mL] | Viable counts, Escherichia coli time kill study ([2]; time 0) [Log10 CFU/mL] | Viable counts, Pseudomonas aeruginosa time kill study ([3]; 0.5 min) [Log10 CFU/mL] | Viable counts, Pseudomonas aeruginosa time kill study ([3]; 1 min) [Log10 CFU/mL] | Viable counts, Pseudomonas aeruginosa time kill study ([3]; 5 min) [Log10 CFU/mL] | Viable counts, Pseudomonas aeruginosa time kill study ([3]; time 0) [Log10 CFU/mL] | MIC ([4]; Table 19 summary) [µg/mL] | MIC Candida albicans ([4]; n = 1) [µg/mL] | MIC Candida albicans ([4]; n = 2) [µg/mL] | MIC ([5]; Table 19 summary) [µg/mL] | MIC S. aureus ([5]; n = 1) [µg/mL] | MIC S. aureus ([5]; n = 2) [µg/mL] | MIC Aspergillus niger ([6]; n = 1) [µg/mL] | MIC Aspergillus niger ([6]; n = 2) [µg/mL] | other results
1 | CCCCCCCCCCCCOC(=O)C(C)N(C)C (stereo not shown) [Nex-30, Dodecyl 2-(dimethylamino)propanoate ethanesulfonate] | 6.23 | 6.22 | 6.21 | 6.24 | 5.46 | 3.7 | <3.52 | 5.83 | <4.0 | <3.70 | <3.52 | 5.67 | >12500 | >12500 | >12500 | 3130 | 3130 | 3130 | >12500 | >12500 | MIC ([6]; Table 19 summary): >12500 µg/mL; MIC [7, 9]: 3130 µg/mL; MIC E. coli ([7]; n = 1): 3130 µg/mL; MIC E. coli ([7]; n = 2): 3130 µg/mL; MIC ([8]; Table 19 summary): 6250 µg/mL; MIC P. aeruginosa ([8]; n = 1): 6250 µg/mL; MIC P. aeruginosa ([8]; n = 2): 6250 µg/mL; pH (pH (Table 1)): 3.79
2 | NCC[C@H](O)C(=O)N[C@@H]1C[C@H](N)[C@@H](O[C@H]2O[C@H](CN)[C@@H](O)[C@H](O)[C@H]2O)[C@H](O)[C@H]1O[C@H]1O[C@H](CO)[C@@H](O)[C@H](N)[C@H]1O [Amikacin, reference compound] |  |  |  |  |  |  |  |  |  |  |  |  |  |  |  |  |  |  |  |  | MIC [5, 10]: 2 µg/mL (≈ 3.42 µM); MIC [5, 11]: 2 µg/mL (≈ 3.42 µM); MIC [7, 12]: 2 µg/mL (≈ 3.42 µM); MIC [7, 13]: 2 µg/mL (≈ 3.42 µM); MIC [8, 14]: 2 µg/mL (≈ 3.42 µM); MIC [8, 15]: 2 µg/mL (≈ 3.42 µM)
3 | CCCCCCCCCCCCOC(=O)[C@H](C)N(C)C.Cl [Nex-57, L-Dodecyl 2-(dimethylamino)propanoate hydrochloride] | 6.17 | 6.19 | 5.92 | 6.29 | <4.0 | <3.70 | <3.52 | 5.78 | <4.0 | <3.70 | <3.52 | 5.45 | >12500 | >12500 | >12500 | 3130 | 3130 | 3130 | >12500 | >12500 | MIC ([6]; Table 19 summary): >12500 µg/mL; MIC [7, 9]: 3130 µg/mL; MIC E. coli ([7]; n = 1): 3130 µg/mL; MIC E. coli ([7]; n = 2): 3130 µg/mL; MIC ([8]; Table 19 summary): 6250 µg/mL; MIC P. aeruginosa ([8]; n = 1): 6250 µg/mL; MIC P. aeruginosa ([8]; n = 2): 6250 µg/mL; pH (pH (Table 1)): 1.57
4 | OC(Cn1cncn1)(Cn1cncn1)c1ccc(F)cc1F [Fluconazole, reference compound] |  |  |  |  |  |  |  |  |  |  |  |  |  |  |  |  |  |  |  |  | MIC ([4]; Candida albicans, ATCC90029, n = 1, read-out: MIC Candida albicans): 0.25 µg/mL (≈ 0.816 µM); MIC ([4]; Candida albicans, ATCC90029, n = 2, read-out: MIC Candida albicans): 0.25 µg/mL (≈ 0.816 µM); MIC ([6]; Aspergillus niger, CMCC98003, n = 1, read-out: MIC Aspergillus niger): > 4000 µg/mL; MIC ([6]; Aspergillus niger, CMCC98003, n = 2, read-out: MIC Aspergillus niger): > 4000 µg/mL
5 | CC(C)(O/N=C(\C(=O)N[C@@H]1C(=O)N2C(C(=O)[O-])=C(C[n+]3ccccc3)CS[C@H]12)c1csc(N)n1)C(=O)O [Ceftazidime, reference compound] |  |  |  |  |  |  |  |  |  |  |  |  |  |  |  |  |  |  |  |  | MIC [5, 10]: 8 µg/mL (≈ 14.6 µM); MIC [5, 11]: 16 µg/mL (≈ 29.3 µM); MIC [7, 12]: 0.5 µg/mL (≈ 0.915 µM); MIC [7, 13]: 0.5 µg/mL (≈ 0.915 µM); MIC [8, 14]: 2 µg/mL (≈ 3.66 µM); MIC [8, 15]: 2 µg/mL (≈ 3.66 µM)
6 | C[C@@H]1[C@H](O)[C@@H](C)/C=C/C=C/C=C/C=C/C=C/C=C/C=C/[C@H](O[C@@H]2O[C@H](C)[C@@H](O)[C@H](N)[C@@H]2O)C[C@@H]2O[C@](O)(C[C@@H](O)C[C@@H](O)[C@H](O)CC[C@@H](O)C[C@@H](O)CC(=O)O[C@H]1C)C[C@H](O)[C@H]2C(=O)O [Amphotericin B, reference compound] |  |  |  |  |  |  |  |  |  |  |  |  |  | 0.5 (≈ 0.541 µM) | 0.5 (≈ 0.541 µM) |  |  |  | 2000 (≈ 2160 µM) | 2000 (≈ 2160 µM) | 
